# From ChEMBL document CHEMBL1255486, “Effect of vicriviroc on the QT/corrected QT interval and central nervous system in healthy subjects” (Antimicrob Agents Chemother, 2010)
# Experiments:
# [1] = Tmax in healthy human at 250 mg/kg, po once daily for 7 days; format: ADME, organism-based; parameters: dose 250 mg/kg, route oral; settings: in vivo
# Homo sapiens [2] = assay: Toxicity in healthy human assessed as puncture site pain at 250 […], po once daily for 7 days; format: organism-based; parameters: route oral; settings: in vivo, 168 h
# [3] = AUC (0 to 24 hrs) in healthy human at 200 mg/kg, po once daily for 7 days; format: ADME, organism-based; parameters: time < 24 hr, dose 200 mg/kg, route oral; settings: plasma
# [4] = Tmax in healthy human at 250 mg/kg, po once daily for 7 days measured after 1 day of last dose; format: ADME, organism-based; parameters: dose 250 mg/kg, route oral; settings: in vivo
# Homo sapiens [5] = assay: Toxicity in healthy human assessed as increase in blood […] at 250 […], po once daily for 7 days; format: organism-based; parameters: route oral; settings: in vivo, 168 h
# Homo sapiens [6] = assay: Toxicity in healthy human assessed as headache at 250 […], po administered as single dose; format: organism-based; parameters: route oral; settings: in vivo
# Homo sapiens [7] = assay: Toxicity in healthy human assessed as fatigue at 150 […], po once daily for 7 days; format: organism-based; parameters: route oral; settings: in vivo, 168 h
# [8] = Cmax in healthy human at 250 mg/kg, po administered as single dose after 1 day; format: ADME, organism-based; parameters: dose 250 mg/kg, route oral; settings: in vivo
# Homo sapiens [9] = assay: Toxicity in healthy human assessed as pollakiuria at 200 […], po once daily for 7 days; format: organism-based; parameters: route oral; settings: in vivo, 168 h
# [10] = AUC (0 to infinity) in healthy human at 200 mg/kg, po administered as single dose after 1 day; format: ADME, organism-based; parameters: time infinity, dose 200 mg/kg, route oral; settings: plasma
# Homo sapiens [11] = assay: Toxicity in healthy human assessed as fatigue at 200 […], po administered as single dose; format: organism-based; parameters: route oral; settings: in vivo
# [12] = AUC (0 to 24 hrs) in healthy human at 250 mg/kg, po once daily for 7 days measured after 1 day of last dose; format: ADME, organism-based; parameters: time < 24 hr, dose 250 mg/kg, route oral; settings: plasma
# Homo sapiens [13] = assay: Toxicity in healthy human assessed as fatigue at 300 […], po administered as single dose; format: organism-based; parameters: route oral; settings: in vivo
# Homo sapiens [14] = assay: Toxicity in healthy human assessed as headache at 200 […], po once daily for 7 days; format: organism-based; parameters: route oral; settings: in vivo, 168 h
# Homo sapiens [15] = assay: Toxicity in healthy human assessed as pollakiuria at 150 […], po once daily for 7 days; format: organism-based; parameters: route oral; settings: in vivo, 168 h
# [16] = Tmax in healthy human at 200 mg/kg, po administered as single dose after 1 day; format: ADME, organism-based; parameters: dose 200 mg/kg, route oral; settings: in vivo
# Homo sapiens [17] = assay: Toxicity in healthy human assessed as fatigue at 250 […], po once daily for 7 days; format: organism-based; parameters: route oral; settings: in vivo, 168 h
# [18] = AUC (0 to 24 hrs) in healthy human at 150 […], po after 10 days; format: ADME, organism-based; parameters: time < 24 hr, dose 150 mg/kg, route oral; settings: plasma
# Homo sapiens [19] = assay: Toxicity in healthy human assessed as EEG abnormality at 200 mg/kg, po administered as single dose; format: organism-based; parameters: dose 200 mg/kg, route oral; settings: in vivo
# Homo sapiens [20] = assay: Toxicity in healthy human assessed as headache at 250 […], po once daily for 7 days; format: organism-based; parameters: route oral; settings: in vivo, 168 h
# Homo sapiens [21] = assay: Toxicity in healthy human assessed as fatigue at 200 […], po once daily for 7 days; format: organism-based; parameters: route oral; settings: in vivo, 168 h
# [22] = Tmax in healthy human at 250 mg/kg, po administered as single dose after 1 day; format: ADME, organism-based; parameters: dose 250 mg/kg, route oral; settings: in vivo
# Homo sapiens [23] = assay: Toxicity in healthy human assessed as headache at 300 […], po administered as single dose; format: organism-based; parameters: route oral; settings: in vivo
# Homo sapiens [24] = assay: Cardiotoxicity in healthy human assessed as change in corrected QT interval at 150 […], po after 10 days by ECG; format: toxicity, organism-based; parameters: dose 150 mg/kg, route oral; settings: in vivo, 240 h
# Homo sapiens [25] = assay: Cardiotoxicity in healthy human assessed as change in corrected QT interval at 30 mg/kg, po after 10 days by ECG; format: toxicity, organism-based; parameters: dose 30 mg/kg, route oral; settings: in vivo, 240 h
# Homo sapiens [26] = assay: Toxicity in healthy human assessed as headache at 200 […], po administered as single dose; format: organism-based; parameters: route oral; settings: in vivo
# [27] = AUC (0 to 24 hrs) in healthy human at 30 mg/kg, po after 10 days; format: ADME, organism-based; parameters: time < 24 hr, dose 30 mg/kg, route oral; settings: plasma
# [28] = Cmax in healthy human at 150 […], po once daily for 7 days; format: ADME, organism-based; parameters: dose 150 mg/kg, route oral; settings: in vivo
# Homo sapiens [29] = assay: Toxicity in healthy human assessed as nausea at 250 […], po once daily for 7 days; format: organism-based; parameters: route oral; settings: in vivo, 168 h
# [30] = AUC (0 to infinity) in healthy human at 300 mg/kg, po administered as single dose after 1 day; format: ADME, organism-based; parameters: time infinity, dose 300 mg/kg, route oral; settings: plasma
# [31] = Cmax in healthy human at 250 mg/kg, po once daily for 7 days; format: ADME, organism-based; parameters: dose 250 mg/kg, route oral; settings: in vivo
# [32] = Tmax in healthy human at 150 […], po once daily for 7 days; format: ADME, organism-based; parameters: dose 150 mg/kg, route oral; settings: in vivo
# Homo sapiens [33] = assay: Toxicity in healthy human assessed as nausea at 200 […], po administered as single dose; format: organism-based; parameters: route oral; settings: in vivo
# [34] = Cmax in healthy human at 200 mg/kg, po administered as single dose after 1 day; format: ADME, organism-based; parameters: dose 200 mg/kg, route oral; settings: in vivo
# Homo sapiens [35] = assay: Toxicity in healthy human assessed as EEG abnormality at 250 mg/kg, po once daily for 7 days; format: organism-based; parameters: dose 250 mg/kg, route oral; settings: in vivo, 168 h
# [36] = Tmax in healthy human at 300 mg/kg, po administered as single dose after 1 day; format: ADME, organism-based; parameters: dose 300 mg/kg, route oral; settings: in vivo
structure (smiles),measurement,setting,value
COC[C@@H](c1ccc(C(F)(F)F)cc1)N1CCN(C2(C)CCN(C(=O)c3c(C)ncnc3C)CC2)C[C@@H]1C [VICRIVIROC],Tmax,[1],2 h
same,Activity,Homo sapiens [2],17%
same,AUC at 24 h,[3],8140 ng·h/mL
same,Tmax,[4],1.5 h
same,Activity,Homo sapiens [5],10%
same,Activity,Homo sapiens [6],38%
same,Activity,Homo sapiens [7],50%
same,Cmax,[8],984 ng/mL
same,Activity,Homo sapiens [9],13%
same,AUC(0-inf),[10],6050 ng·h/mL
same,Activity,Homo sapiens [11],0%
same,AUC at 24 h,[12],5050 ng·h/mL
same,Activity,Homo sapiens [13],0%
same,Activity,Homo sapiens [14],13%
same,Activity,Homo sapiens [15],38%
same,Tmax,[16],2 h
same,Activity,Homo sapiens [17],0%
same,AUC at 24 h,[18],32200 ng·h/mL
same,Activity,Homo sapiens [19],0%
same,Activity,Homo sapiens [20],25%
same,Activity,Homo sapiens [21],0%
same,Tmax,[22],2 h
same,Activity,Homo sapiens [23],13%
same,Activity,Homo sapiens [24],Non-toxic
same,Activity,Homo sapiens [25],Non-toxic
same,Activity,Homo sapiens [26],0%
same,AUC at 24 h,[27],6670 ng·h/mL
same,Cmax,[28],649 ng/mL
same,Activity,Homo sapiens [29],13%
same,AUC(0-inf),[30],10100 ng·h/mL
same,Cmax,[31],1040 ng/mL
same,Tmax,[32],1.5 h
same,Activity,Homo sapiens [33],0%
same,Cmax,[34],731 ng/mL
same,Activity,Homo sapiens [35],38%
same,Tmax,[36],2.9 h
